Measured values taken from patent publication US20090029979A1, “5-HTX MODULATORS” (BIO-MEDISINSK INNOVASJON AS, priority 2005, published 2009).
Where a name gives a salt, the structure may show the parent alone.

Biological target: T1, human 5-HT2A receptor (Homo sapiens, UniProt P28223)
T1 construct: expressed in transfected cells; host or cells: HEK293, transient transfection
Test: Radioligand binding assay with [3H]ketanserin, membranes of HEK293 cells transiently transfected with human 5-HT2A receptor
Conditions: 5-HT2A ligands, values are pKd ± half-range, read-out: Binding affinity (pKd value) (pKd ± SEM) (converted)
Method: Binding assays were performed in 96-well, round-bottom microtiter plates with total reaction volumes of 50-200 μl, containing the indicated concentration of [^3H]GR113808 with or without competing unlabelled ligand in a binding buffer containing 50 mM Tris-HCl (pH 7.5 at RT), 1 mM EDTA, 5 mM EGTA, 2 mM MgCl2, 1 mM ascorbate, 0.1% BSA and 100 μM GTP. The plates were incubated at 23° C. for 60 min and harvested onto UniFilter™-96 GF/C™ (Packard Instrument Co., Meriden, Conn., USA), presoaked in 0.3% polyethyleneimine (Sigma), using a Packard FilterMate Universal Harvester with 96-well format, and washed 4-6 times with approximately 0.25 ml/well of ice-cold buffer, containing 50 mM Tris-HCl (pH 7.0 at RT) and 2 mM MgCl2. The filters were dried and counted at approximately 40% efficiency in a Top-Count liquid scintillation counter (Packard), using 20 μl per filter well of Micro-Scint liquid scintillation cocktail (Packard).
The same materials and methods described in example 83 were used for the biological testing of hydrophilic 5-HT7 and 5-HT2A ligands. Membrane preparations of HEK293 cell lines stably expressing human 5-HT7(a) receptors (Krobert et al. 2001), or HEK293 cells transiently transfected with human 5-HT2A receptor were used in the binding assays. […]

T1 sequence (P28223 whole entry): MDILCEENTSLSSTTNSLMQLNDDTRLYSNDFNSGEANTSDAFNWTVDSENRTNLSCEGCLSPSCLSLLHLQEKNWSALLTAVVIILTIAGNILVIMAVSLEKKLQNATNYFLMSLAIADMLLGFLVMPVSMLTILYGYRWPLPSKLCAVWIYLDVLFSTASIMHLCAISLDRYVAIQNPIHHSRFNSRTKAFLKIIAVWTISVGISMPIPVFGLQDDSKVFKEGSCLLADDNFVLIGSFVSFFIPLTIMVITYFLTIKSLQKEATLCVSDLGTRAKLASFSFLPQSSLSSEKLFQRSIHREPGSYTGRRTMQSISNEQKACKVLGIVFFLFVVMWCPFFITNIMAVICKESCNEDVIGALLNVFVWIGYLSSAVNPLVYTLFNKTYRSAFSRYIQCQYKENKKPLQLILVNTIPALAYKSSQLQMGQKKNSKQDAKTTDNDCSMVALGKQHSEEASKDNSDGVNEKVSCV

Compound | Kd [µM]
COC(=O)c1ccc(CN2CCC(NC(=O)C34CC5CC(CC(C5)C3)C4)C2)cc1 (centres unmarked) [Example 72] | 49
COc1cc(OC)c(C(=O)CCCCN2CCC3(CC2)NC(=O)NC3=O)cc1NS(=O)(=O)c1ccc(C(F)(F)F)cc1 [RS102221, 8-(5-(2,4-Dimethoxy-5-(4-trifluoromethylphenylsulphonamido)phenyl-5-oxopentyl]-1,3,8-triazaspiro[4.5]decane-2,4-dione hydrochloride, reference compound] | 4.57
